Biological target: T1, Kv7.1/KCNE1 (Homo sapiens, UniProt P51787)
T1 construct: cRNA encoding Kv7.1 (UniProt: P51787), KCNE1 (UniProt: P15382.1); expressed in transfected cells; host or cells: Xenopus laevis oocytes (cRNA injection, Kv7.1:KCNE1 3:1 by weight)
Assay: Two-electrode voltage clamp of Kv7.1/KCNE1 expressed in Xenopus oocytes
Type: cell-based
Parameters: Fitted slope factor of conductance vs voltage relationship: unit of the concentration uncertain
Details: for IKs I/I0: relative current at 0 mV
Procedure: Molecular Biology cRNA encoding Kv7.1 (UniProt: P51787), KCNE1 (UniProt: P15382.1), Nav1.5 (UniProt: Q14524.1), Nav β1 (UniProt: […]), Nav β3 (UniProt: […]), Cav1.2 (GenBank: CAA84346), Cav β3 (Uniprot: P54286), Cav β2 (Uniprot: P54288), and Cav α2δ (Uniprot: P13806) were transcribed using the mMessage mMachine T7 kit (Ambion). 50 ng of cRNA was injected into defolliculated Xenopus laevis oocytes (Ecocyte, Austin, TX): For Kv7.1/KCNE1 channel expression, we injected a 3:1, weight:weight (Kv7.1:KCNE1) cRNA ratio. For Nav1.5 channel expression, we injected a 2:1, weight:weight (Nav1.5:β1) cRNA ratio. For Cav1.2 channel expression, we injected a 2:1:1, weight:weight (Cav1.2:β3:α2δ) cRNA ratio. The exact stoichiometry for channel macromolecular complexes, including α -subunits and auxiliary subunits is not clear for many ion channels. For example, there have been multiple reported stoichiometries for Kv7.1:KCNE1 determined in heterologous expression systems with some groups reporting flexible stoichiometry of 4 Kv7.1: 1–4 KCNE1 and others reporting a fixed stoichiometry of 4 Kv7.1: 2 KCNE1 ([Murray et al., 2016]; [Nakajo et al., 2010]). The ratios of cRNA of α- and auxiliary subunits that we injected in Xenopus laevis oocytes are such that all α-subunits are assumed to be in complex with auxiliary subunits. This allows a more homogenous population of ion channels with auxiliary subunits. One caveat to expressing ion channels as macromolecular complexes is that there are many other auxiliary subunits that could associate with the channel α -subunit that are present in cardiomyocytes and have the potential to alter PUFA-induced effects, but that are not being co-expressed in our experiments. In this work, we are co-expressing some of the auxiliary subunits that have been primarily reported to associate with their respective α -subunits in cardiomyocytes. Following cRNA injection, cells were incubated for 72–96 hr in standard ND96 solution (96 mM NaCl, 2 mM KCl, 1 mM MgCl2, 1.8 mM CaCl2, 5 mM HEPES; pH = 7.5) containing 1 mM pyruvate at 16°C prior to electrophysiological recordings.
Xenopus laevis oocytes were recorded in the two-electrode voltage clamp (TEVC) configuration. Recording pipettes were filled with 3 M KCl. The recording chamber was filled with ND96 (96 mM NaCl, 2 mM KCl, 1 mM MgCl2, 1.8 mM CaCl2, 5 mM HEPES; pH 7.5). For Cav1.2/β3/α2δ channel recordings, Xenopus oocytes were injected with 50 nl of 100 mM EGTA and incubated at 10°C for 30 min prior to electrophysiological recordings in order to sequester cytosolic calcium. In addition, Cav1.2/β3/α2δ channel recordings were done in Ca^2+-free solutions, using Ba^2+ as the charge carrier, to prevent calcium-dependent inactivation of Cav1.2/β3/α2δ channels. Calcium-dependent inactivation was not studied in this work, due to the presence of large calcium-activated chloride currents present in Xenopus laevis oocytes. PUFAs were obtained from Cayman Chemical (Ann Arbor, MI.) or synthesized in house (Linköping, Sweden) through methods previously described ([Bohannon et al., 2020]) and kept at −20 °C as 100 mM stock solutions in ethanol. […] PUFAs were perfused into the recording chamber using the Rainin Dynamax Peristaltic Pump (Model RP-1) (Rainin Instrument Co., Oakland, CA. USA).
Electrophysiological recordings were obtained using Clampex 10.3 software (Axon, pClamp, Molecular Devices). To measure Kv7.1/KCNE1 currents we apply PUFAs as the membrane potential is stepped every 30 s from −80 mV to 0 mV for 5 s before stepping to −40 mV and back to −80 mV to ensure that the PUFA effects on the current at 0 mV reached steady state. A voltage-step protocol was used to measure the current vs. voltage (I-V) relationship before PUFA application and after the PUFA effects had reached steady state for each concentration of PUFA. Cells were held at −80 mV followed by a hyperpolarizing prepulse to −140 mV. […]

| SMILES | Fitted slope factor of conductance vs voltage relationship (0.2 μM) [mV] | Gmax/Gmax0 (0.2 μM) | ΔV0.5 (voltage dependence of activation) (0.2 μM) [mV] | IKs I/I0 (0.2 μM) | Fitted slope factor of conductance vs voltage relationship (0.7 μM) [mV] | Gmax/Gmax0 (0.7 μM) | ΔV0.5 (voltage dependence of activation) (0.7 μM) [mV] | IKs I/I0 (0.7 μM) | Fitted slope factor of conductance vs voltage relationship (2 μM) [mV] | Gmax/Gmax0 (2 μM) | ΔV0.5 (voltage dependence of activation) (2 μM) [mV] | IKs I/I0 (2 μM) | Fitted slope factor of conductance vs voltage relationship (7 μM) [mV] | Gmax/Gmax0 (7 μM) | ΔV0.5 (voltage dependence of activation) (7 μM) | Fitted slope factor of conductance vs voltage relationship (20 μM) [mV] | Gmax/Gmax0 (20 μM) | ΔV0.5 (voltage dependence of activation) (20 μM) [mV] | IKs I/I0 (20 μM) | IKs I/I0 (7 μM) | other results |
| --- | --- | --- | --- | --- | --- | --- | --- | --- | --- | --- | --- | --- | --- | --- | --- | --- | --- | --- | --- | --- | --- |
| CC/C=C\C/C=C\C/C=C\C/C=C\C/C=C\C/C=C\CCC(=O)NCC(=O)O [DHA-glycine, docosahexaenoyl glycine] | 16.5 ± 0.49 | 1.3 ± 0.1 | -2.0 ± 0.8 | 1.3 ± 0.1 | 16.6 ± 0.45 | 1.5 ± 0.1 | -3.0 ± 1.0 | 1.7 ± 0.2 | 16.6 ± 0.52 | 1.7 ± 0.2 | -5.8 ± 0.9 | 2.4 ± 0.5 | 17.0 ± 0.56 | 1.9 ± 0.2 | −10.5 ± 1.0 mV | 17.9 ± 0.68 | 2.0 ± 0.2 | -16.5 ± 1.3 | 5.0 ± 1.3 | – | – |
| CCCCC/C=C\C/C=C\CCCCCCCC(=O)NCC(=O)O [Lin-glycine] | 18.2 ± 0.89 | 1.2 ± 0.1 | -2.7 ± 1.5 | 1.2± 0.1 | 19.0 ± 1.0 | 1.3 ± 0.1 | -3.3 ± 3.0 | 1.4 ± 0.1 | 19.2 ± 1.2 | 1.8 ± 0.2 | -10.0 ± 2.8 | 2.5 ± 0.4 | 20.6 ± 1.5 | 2.3 ± 0.2 | −23.8 ± 1.6 mV | 22.1 ± 1.7 | 2.4 ± 0.2 | -26.4 ± 4.4 | 5.3 ± 0.5 | 5.1 ± 0.4 (p=0.002) | ΔV0.5 (voltage dependence of activation) (7 μM, listed as lin-glycine): -23.8 ± 1.6 mV; IKs I/I0 (7 μM, listed as lin-glycine): 5.1 ± 0.4 |

The next lines start with results.

| Fitted slope factor of conductance vs voltage relationship (0.2 μM) [mV] | Gmax/Gmax0 (0.2 μM) | ΔV0.5 (voltage dependence of activation) (0.2 μM) [mV] | IKs I/I0 (0.2 μM) | Fitted slope factor of conductance vs voltage relationship (0.7 μM) [mV] | Gmax/Gmax0 (0.7 μM) | ΔV0.5 (voltage dependence of activation) (0.7 μM) [mV] | IKs I/I0 (0.7 μM) | Fitted slope factor of conductance vs voltage relationship (2 μM) [mV] | Gmax/Gmax0 (2 μM) | ΔV0.5 (voltage dependence of activation) (2 μM) [mV] | IKs I/I0 (2 μM) | Fitted slope factor of conductance vs voltage relationship (7 μM) [mV] | Gmax/Gmax0 (7 μM) | ΔV0.5 (voltage dependence of activation) (7 μM) | Fitted slope factor of conductance vs voltage relationship (20 μM) [mV] | Gmax/Gmax0 (20 μM) | ΔV0.5 (voltage dependence of activation) (20 μM) [mV] | IKs I/I0 (20 μM) | IKs I/I0 (7 μM) | SMILES | other results |
| --- | --- | --- | --- | --- | --- | --- | --- | --- | --- | --- | --- | --- | --- | --- | --- | --- | --- | --- | --- | --- | --- |
| 17.9 ± 0.82 | 1.2 ± 0.1 | 2.6 ± 2.4 | 1.1 ± 0.1 | 17.7 ± 0.82 | 1.3 ± 0.2 | 2.3 ± 3.5 | 1.4 ± 0.4 | 18.3 ± 0.96 | 2.0 ± 0.4 | -4.9 ± 3.4 | 3.0 ± 0.4 | 18.8 ± 1.0 | – | −23.8 ± 2.7 mV | 16.8 ± 0.73 | 1.9 ± 0.3 | -51.6 ± 3.5 | 9.0 ± 1.4 | 6.8 ± 1.0 (p=0.01) | CCCCC/C=C\C/C=C\CC/C=C\CCCC(=O)NCCS(=O)(=O)O [Pin-taurine] | Gmax/Gmax0 (7 μM, listed as pin-taurine): 2.2 ± 0.4; ΔV0.5 (voltage dependence of activation) (7 μM, listed as pin-taurine): -23.8 ± 2.7 mV; IKs I/I0 (7 μM, listed as pin-taurine): 6.8 ± 1.0 |
| 17.9 ± 0.83 | 1.0 ± 0.1 | 3.9 ± 0.6 | 0.7 ± 0.1 | 17.8 ± 0.84 | 1.2 ± 0.1 | 2.3 ± 0.2 | 1.0 ± 0.1 | 17.9 ± 0.91 | 1.3 ± 0.1 | 2.3 ± 0.7 | 1.1 ± 0.1 | 18.7 ± 1.1 | 1.7 ± 0.1 | – | 20.9 ± 1.4 | 1.7 ± 0.1 | -19.9 ± 2.4 | 3.6 ± 0.2 | – | CCCCC/C=C\C/C=C\CC/C=C\CCCC(=O)NCC(=O)O [Pin-glycine] | ΔV0.5 (voltage dependence of activation) (7 μM, listed as pin-glycine): -8.5 ± 1.7 mV; IKs I/I0 (7 μM, listed as pin-glycine): 2.4 ± 0.2 |
| 17.7 ± 0.76 | 1.0 ± 0.03 | 1.3 ± 0.7 | 1.0 ± 0.1 | 17.7 ± 0.77 | 1.1 ± 0.02 | -0.3 ± 1.4 | 1.2 ± 0.2 | 18.6 ± 1.0 | 1.7 ± 0.4 | -12.3 ± 3.1 | 3.2 ± 0.9 | 18.1 ± 1.0 | 1.9 ± 0.6 | −39.9 ± 3.6 mV | 12.2 ± 1.8 | 2.0 ± 0.6 | -73.1 ± 2.6 | 10.4 ± 4.0 | 7.7 ± 2.9 (p=0.14) | CCCCC/C=C\C/C=C\CCCCCCCC(=O)NCCS(=O)(=O)O [Lin-taurine, Linoleoyl taurine] | ΔV0.5 (voltage dependence of activation) (7 μM, listed as lin-taurine): -39.9 ± 3.6 mV; IKs I/I0 (7 μM, listed as lin-taurine): 7.7 ± 2.9 |
| 16.9 ± 0.65 | 1.0 ± 0.1 | 0.7 ± 0.8 | 1.0 ± 0.02 | 17.2 ± 0.62 | 0.9 ± 0.02 | 0.9 ± 1.1 | 1.0 ± 0.03 | 17.4 ± 0.60 | 0.9 ± 0.02 | 0.6 ± 1.1 | 1.0 ± 0.04 | 18.2 ± 0.59 | 0.9 ± 0.03 | –1.8 ± 2.6 mV | 18.7 ± 0.73 | 0.9 ± 0.02 | -8.5 ± 4.9 | 1.3 ± 0.2 | – | CCCCC/C=C\C/C=C\C/C=C\C/C=C\CCCC(=O)NCCS(=O)(=O)O [N-AT, N-arachidonoyl taurine] | concentrations at which the effects on IKs appear (I/I0 at 0 mV): > 20 µM |
